The test system of experiment [1] is Lacticaseibacillus casei. Kind of experiment: Inhibitory activity against thymidylate synthase in Lactobacillus casei was determined (glutamate residue 6). It is filed as functional, organism-based.
The target of experiment [2] is T1, Dihydrofolate reductase (Lactobacillus casei, UniProt P00381). Kind of experiment: Inhibitory activity against dihydrofolate reductase in Lactobacillus casei was determined (glutamate residue 4). In kind it is functional, Lacticaseibacillus casei.
Experiment [3] deals with Lacticaseibacillus casei. Kind of experiment: Inhibitory activity against the growth of Lactobacillus casei (ATCC 7469) was determined (glutamate residue 5). In kind it is functional, organism-based.
In experiment [4] the test system is Lacticaseibacillus casei. Kind of experiment: Inhibitory activity against the growth of Lactobacillus casei (ATCC 7469) was determined (glutamate residue 6). In kind it is functional, organism-based.
Experiment [5] has as its system Lacticaseibacillus casei. Kind of experiment: Inhibitory activity against the growth of Lactobacillus casei (ATCC 7469) was determined (glutamate residue 2). It is filed as functional, organism-based.
Experiment [6] has as its system Lacticaseibacillus casei. Briefly: Inhibitory activity against the growth of Lactobacillus casei (ATCC 7469) was determined (glutamate residue 4). It is filed as functional, organism-based.
The test system of experiment [7] is Lacticaseibacillus casei. Kind of experiment: Inhibitory activity against the growth of Lactobacillus casei (ATCC 7469) was determined (glutamate residue 3). In kind it is functional, organism-based.
In experiment [8] the test system is Lacticaseibacillus casei. Kind of experiment: Inhibitory activity against thymidylate synthase in Lactobacillus casei was determined (glutamate residue 4). It is filed as functional, organism-based.
For experiment [9], the target named is T1, Dihydrofolate reductase. Briefly: Inhibitory activity against dihydrofolate reductase in Lactobacillus casei was determined (glutamate residue 3). In kind it is functional, Lacticaseibacillus casei.
In experiment [10] the test system is Lacticaseibacillus casei. Kind of experiment: Inhibitory activity against thymidylate synthase in Lactobacillus casei was determined (glutamate residue 2). It is filed as functional, organism-based.
The subject of experiment [11] is Enterococcus hirae (Streptococcus faecium ATCC 8043). Kind of experiment: Inhibitory activity against the growth of Streptococcus faecium (ATCC 8043) was determined (glutamate residue 6).
Experiment [12] addresses T1, Dihydrofolate reductase. Kind of experiment: Inhibitory activity against dihydrofolate reductase in Lactobacillus casei was determined (glutamate residue 5). In kind it is functional, Lacticaseibacillus casei.
Experiment [13] has as its target T1, Dihydrofolate reductase. Kind of experiment: Inhibitory activity against dihydrofolate reductase in Lactobacillus casei was determined (glutamate residue 6). It is filed as functional, Lacticaseibacillus casei.
In experiment [14] the test system is Lacticaseibacillus casei. Briefly: Inhibitory activity against the growth of Lactobacillus casei (ATCC 7469) was determined (glutamate residue 1). In kind it is functional, organism-based.
Experiment [15] addresses T1, Dihydrofolate reductase. Kind of experiment: Inhibitory activity against dihydrofolate reductase in Lactobacillus casei was determined (glutamate residue 2). In kind it is functional, Lacticaseibacillus casei.
Experiment [16] relates to Lacticaseibacillus casei. Briefly: Inhibitory activity against thymidylate synthase in Lactobacillus casei was determined (glutamate residue 5). In kind it is functional, organism-based.
Experiment [17] concerns Lacticaseibacillus casei. Kind of experiment: Inhibitory activity against thymidylate synthase in Lactobacillus casei was determined (glutamate residue 3). In kind it is functional, organism-based.
Experiment [18] deals with Lacticaseibacillus casei. Kind of experiment: Inhibitory activity against thymidylate synthase in Lactobacillus casei was determined (glutamate residue 1). It is filed as functional, organism-based.

Where “and” joins values, the source holds several entries; their conditions need not be identical. Identical values can stand only once.

The results in this text go back to ChEMBL document CHEMBL1123948, “Synthesis and biological evaluation of poly-gamma-glutamyl metabolites of 10-deazaaminopterin and 10-ethyl-10-deazaaminopterin” (J Med Chem, 1988).

T1 sequence (P00381 whole entry): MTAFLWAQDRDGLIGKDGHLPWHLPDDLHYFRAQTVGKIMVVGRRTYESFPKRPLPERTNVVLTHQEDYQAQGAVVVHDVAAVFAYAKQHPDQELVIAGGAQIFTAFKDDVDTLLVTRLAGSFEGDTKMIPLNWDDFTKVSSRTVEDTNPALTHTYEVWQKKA

The IC50 is the concentration at which inhibition is half-maximal. A high value points to weaker potency. As to `Nc1nc(N)c2nc(CCc3ccc(C(=O)N[C@@H](CCC(=O)O)C(=O)O)cc3)cnc2n1`, the IC50 in experiment [1] is 2300 nM; in [2], 20 nM; in [3], 14 nM; in [4] it was 90 nM; in [5], 0.09 nM; in experiment [6], 3 nM. In addition, the IC50 in experiment [7] is 0.6 nM; in experiment [8], 5500 nM; in experiment [9], 22 nM; in experiment [10], 88000 nM; in [11], > 3000 nM; in [12] it was 21 nM. In addition, the IC50 in [13] was 34 nM; in experiment [14], 0.08 nM; in [15] it was 18 nM and 24 nM; in [16], 3500 nM; in [17], 11000 nM; in [18] it was > 300000 nM.

With `CCC(Cc1cnc2nc(N)nc(N)c2n1)c1ccc(C(=O)N[C@@H](CCC(=O)O)C(=O)O)cc1` (stereo not given in full) [EDATREXATE], the half-maximal inhibitory concentration (IC50) came out at 90 nM in experiment [3]; 0.16 nM in experiment [5]; 9 nM in experiment [6]; 1 nM in experiment [7]; 14000 nM in experiment [8]; 170000 nM in [10]. In addition, the IC50 in [14] was 0.63 nM; in [16], 7400 nM; in experiment [17], 28000 nM; in experiment [18] it was > 300000 nM.

For `CN(Cc1cnc2nc(N)nc(N)c2n1)c1ccc(C(=O)N[C@@H](CCC(=O)O)C(=O)O)cc1` [METHOTREXATE], the IC50 in experiment [1] turned out to be 280 nM; in experiment [3] it was 2.2 nM; in [4], 27 nM; in experiment [5] it was 0.09 nM; in [6], 0.8 nM; in experiment [7], 0.2 nM. For the same compound, the IC50 in experiment [8] was 180 nM; in [10] it was 6000 nM; in experiment [11] it was > 8000 nM; in experiment [16], 280 nM; in experiment [17], 1100 nM; in [18] it was 100000 nM.
